Test results reported in patent US11268068B2, “In vitro model of metastatic cancer” (THE JOHNS HOPKINS UNIVERSITY, priority 2014, dated 2022).

Legend:
[1] = tested on: parental and rs-monolayer population of Huh7 cells; experiment: Chemosensitivity assay (cell viability after 3-BrPA); assay type: cell-based, human; conditions: Huh7 (luc-Huh7) cells, rs-monolayer vs parental monolayer, FIG. 7B
Experimental: Assessment of the chemosensitivity of parental cell population and rs-monolayer population was performed using the antiglycolytic agent, 3-bromopyruvate (3-BrPA). In brief, cells were plated in 96-well plates the day before treatment. Analysis of cell viability following the addition of 3-BrPA was performed as described other cell lines^22.

[2] = tested on: human cancer cells in 3D-culture; conditions: Gomes et al., Oncogene 2015; cited from earlier work

Structure (SMILES) | IC50 of rs-monolayer cells compared to the parental population [1] | IC50 of rs-monolayer cells compared to the parental population ([1]; listed as 3-bromopyruvate) | Sensitivity of 3D-culture compared with corresponding monolayer culture [2]
O=C(O)C(=O)CBr [3-BrPA, 3-bromopyruvate] | An increase in IC50 of rs-monolayer cells compared to the parental population | rs-monolayer cells require a higher concentration of drug | 
COc1cccc2c1C(=O)c1c(O)c3c(c(O)c1C2=O)C[C@@](O)(C(=O)CO)C[C@@H]3O[C@H]1C[C@H](N)[C@H](O)[C@H](C)O1 [doxorubicin] |  |  | more sensitive
